One test addresses MCH1R (UniProt Q99705). Description: MCH1R competition binding assay. The procedure: In vitro binding and function assays are performed on membranes derived from cells or tissues expressing endogenous MCH1R. Competition binding assays are performed to identify high affinity compounds. Briefly, either radiolabeled or europium labeled MCH with varying concentrations of competitor compound which are incubated with membranes expressing the receptor. Rat brain membrane or cell lines, including but not limited to human Kelly neuroblastoma cells, A-431 epidermoid cells, and rat PC-12 cells are known to express endogenous MCH1R and are used in the assay. Binding is allowed to proceed until equilibrium is reached then bound labeled MCH is separated from free MCH by capturing membranes onto a filter. The filters are washed to remove loosely associated MCH and labeled MCH is quantified. Data is analyzed and IC50 and Ki are calculated to determine compound affinity.

The target of another test is T1, 5-HT2c receptor (Homo sapiens, UniProt P28335).
T1 sequence (P28335 33-458): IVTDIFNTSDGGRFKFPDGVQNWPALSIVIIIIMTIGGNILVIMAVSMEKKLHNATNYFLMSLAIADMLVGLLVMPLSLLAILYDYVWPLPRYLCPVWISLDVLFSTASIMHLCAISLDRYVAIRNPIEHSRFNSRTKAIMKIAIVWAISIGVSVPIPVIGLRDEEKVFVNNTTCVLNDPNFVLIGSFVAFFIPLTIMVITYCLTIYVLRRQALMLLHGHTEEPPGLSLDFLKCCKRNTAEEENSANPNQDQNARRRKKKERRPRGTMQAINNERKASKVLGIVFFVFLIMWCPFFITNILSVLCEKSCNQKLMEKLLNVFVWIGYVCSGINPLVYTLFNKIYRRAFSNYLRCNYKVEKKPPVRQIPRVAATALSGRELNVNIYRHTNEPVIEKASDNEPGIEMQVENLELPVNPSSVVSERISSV
The test can be described thus: 5-HT2c receptor binding assay (3H-mesulergine competition). As for the experimental part: Binding assays for serotonin receptor, 5-HT2c receptor MCH antagonist compounds are evaluated for binding to the serotonin 5-HT2c receptor to determine receptor selectivity. Binding activity is assessed using a competitive assay with ^3H-mesulergine (Perkin Elmer), a 5-HT2c selective ligand, on membrane containing the 5-HT2c receptor. Briefly, 1 nM ^3H-mesulergine and varying concentrations of the compound are incubated with 5-HT2c receptor membranes, following an incubation period, the membranes are washed and ^3H-mesulergine bound to membranes is measured in a liquid scintillation counter. The amount of bound ^3H-mesulergine at the varying concentration of competitor compound is used to derive the affinity (Ki) of the compound for the 5-HT2c receptor. 5-HT2c receptor containing membranes are readily available from several companies including Perkin-Elmer and Euroscreen.

Broadly, the IC50 is the point on the concentration scale where inhibition reaches its midpoint. High values mean lower potency, low ones higher potency. `CN(C)Cc1ccc2c(CNC(=O)c3ccc(-c4ccc(F)cc4)cc3)cccc2c1` [4′-Fluoro-biphenyl-4-carboxylic acid (6-dimethylaminomethyl-naphthalen-1-ylmethyl)-amide]: the IC50 on MCH1R is 12 nM; on 5-HT2c receptor it was 1130 nM.
In the same order, the values of `CCN(CC)Cc1ccc2c(CN(C)C(=O)c3ccc(-c4ccc(C(F)(F)F)cc4)cc3)cccc2c1` [4′-Trifluoromethyl-biphenyl-4-carboxylic acid (6-diethylaminomethyl-naphthalen-1-ylmethyl)-methyl-amide] are 70 nM and 2060 nM.

For the origin of these results see US7368462B1, “Melanin concentrating hormone antagonists” (The Procter & Gamble Company, priority 2004, dated 2008).
